According to US8900564B2, “Vaccine composition comprising an antigen and a peptide having adjuvant properties” (Valneva Austria GmbH, priority 2000, dated 2014):
Entries after “also recorded” stand apart in the source; their conditions may differ. Ends that are not written are not given here.

Experiments:
[1] = tested on: P388D1 cells (murine monocyte-macrophage antigen presenting cell line); assay: TRANSloading of murine macrophages: uptake of fluorescein-tagged antigenic peptide with carrier peptide, flow cytometry; format: cell-based; settings: Example 1, FIG. 1; 2 μg antigenic peptide; carrier at 101.7, 50.9 and 5.09 nmol positive charges; 1 h at 37° C.
Text: To test if the (synthetic antimicrobial) peptide KLKLLLLLKLK (SEQ ID NO: 1) is able to function as “carrier-peptide” for antigens, to TRANSload APCs in vitro, which means enhancing the antigen uptake into APCs, a fluorescently labelled peptide was used as antigenic peptide. It was mixed with diverse concentrations of KLKLLLLLKLK (SEQ ID NO: 1) and other previously described “carrier-peptides” as indicated.
To compare the efficiency of peptide delivery of these diverse “carrier-peptides”, the amount of peptide uptake into APCs was monitored by incubating P388D1 cells (murine monocyte-macrophage antigen presenting cell line; purchased from ATCC (TIB-63)) for 1 h at 37° C. with a constant amount of fluorescein-tagged peptide alone or in combination with diverse “carrier-peptides” at concentrations indicated. Before analysing the cells by flow cytometry, the cells were washed extensively to remove free peptide. The relative amount of fluorescein-tagged peptide taken up by the cells was measured by flow cytometry.
The antigenic peptide used is an influenza-haemagglutinin-derived MHC class I (Kd) binding peptide (Buschle, M. (1997)). 2 μg of this fluorescein-tagged antigenic peptide (LFEAIEGFI) (SEQ ID NO:22) were mixed with 3 different amounts of each carrier peptide tested at concentrations representing 101.7, 50.9 and 5.09 nmol positive charges. […]

[2] = tested on: IFN-γ-producing specific cells (lymph node cells); assay: Induction of peptide-specific T cell responses in vivo, IFN-γ ELISpot of lymph node cells after vaccination with TRP-2 peptide; parameters: species or system mice (C57BL/6)
Protocol: For testing the ability of the (synthetic antimicrobial) peptide KLKLLLLLKLK (SEQ ID NO: 1) to enhance the induction of peptide-specific T cell responses in vivo, groups of 4 mice (C57BL/6, female, 8 weeks of age, H-2b) were injected subcutaneously into the flank 3 times (days 0, 28, and 56), with an antigenic melanoma peptide (100 μg) derived from TRP-2 (mouse tyrosinase related protein-2) alone or in combination with either poly-Larginine or the (synthetic antimicrobial) peptide KLKLLL. LKLK (SEQ ID NO: 1) as “carrier peptide”. The amounts of the (synthetic antimicrobial) peptide KLKLLLLLKLK (SEQ ID NO: 1) used represent four different amounts at concentrations representing the equal amount (100 μg) of poly-L-arginine in terms of μg, the equal (168 μg), the double (336 μg) and the triple (504 μg) amount of poly-L-arginine in terms of positive charges. The groups of mice were injected as follows (amounts indicated/per mouse). • (1) 100 μg peptide • (2) 100 μg peptide+100 μg poly-L-arginine (pR 60) • (3) 100 μg peptide+100 μg KLKLLLLLKLK (SEQ ID NO: 1) • (4) 100 μg peptide+168 μg KLKLLLLLKLK (SEQ ID NO: 1) • (5) 100 μg peptide+336 μg KLKLLLLLKLK (SEQ ID NO: 1) • (6) 100 μg peptide+504 μg KLKLLLLLKLK (SEQ ID NO: 1) […]

[3] = tested on: human neutrophils; settings: via cell surface calreticulin; cited from earlier work
[4] = tested on: Staphylococcus aureus; settings: Staphylococcus aureus-infected mice; cited from earlier work

## KLKLLLLLKLK [synthetic antimicrobial peptide used as carrier peptide/adjuvant]
[1]
  fluorescence of TRANSloaded cells (uptake of fluorescein-tagged peptide LFEAIEGFI): high and intense fluorescence
[2]; ELISpot-assay
  IFN-γ-producing T cells specific for the carrier peptide itself, ELISpot: does not elicit IFN-γ-producing peptide-specific T cells
[2]; FIG. 3, s.c. days 0, 28, 56, 100 μg TRP-2 peptide plus 100-504 μg carrier, 12 days after 3rd vaccination, versus peptide alone or with poly-L-arginine
  IFN-γ-producing specific cells (TRP-2 peptide-specific), ELISpot: many more IFN-γ-producing specific cells; also recorded: enhances the induction of peptide-specific T cell responses in vivo

## KLKLLLLLKLK-NH2 [synthetic antimicrobial peptide, amidated form]
[3]
  superoxide anion (O2−) production: activated to produce the superoxide anion
[4]
  chemotherapeutic activity: significant chemotherapeutic activity
